Assay results as given in the CheMixHub viscosity set.

Assay: xn = mol fraction of the nth substance listed

CCCCN + CCCCCCO
viscosity [mPa·s], 101.33 kPa
Details	303.15 K	313.15 K	323.15 K
x1 = 0.099	3.27	2.673	–
x1 = 0.1002	3.164	2.411	1.888
x1 = 0.2005	2.593	2.026	1.608
x1 = 0.2079	2.728	2.202	–
x1 = 0.2888	2.334	1.906	–
x1 = 0.3001	2.082	1.642	1.322
x1 = 0.4004	1.701	1.356	1.113
x1 = 0.414	1.79	1.47	–
x1 = 0.5002	1.371	1.12	0.923
x1 = 0.5223	1.39	1.161	–
x1 = 0.5987	1.155	0.9887	–
x1 = 0.6001	1.105	0.909	0.765
x1 = 0.6999	0.906	0.759	0.648
x1 = 0.7197	0.8668	0.754	–
x1 = 0.8001	0.729	0.622	0.537
x1 = 0.8124	0.6995	0.611	–
x1 = 0.8998	0.573	0.494	0.433
x1 = 0.9046	0.5625	0.4944	–

CC[N+](=O)[O-] + c1ccccc1
293.15 K, 101.33 kPa
Details	viscosity [mPa·s]
x1 = 0.0901	0.628
x1 = 0.1956	0.611
x1 = 0.2856	0.602
x1 = 0.3897	0.595
x1 = 0.4893	0.594
x1 = 0.5827	0.597
x1 = 0.6952	0.608
x1 = 0.7869	0.622
x1 = 0.879	0.644

O=C(O)[C@H](O)[C@@H](O)C(=O)O + C[N+](C)(C)CCO.[Cl-]
viscosity [mPa·s]
Details	303 K	313 K	313.2 K	323 K
101 kPa, x2 = 0.5	1281000	240000	–	73300
101.3 kPa, x2 = 0.669	–	–	6790	–

CC[N+](=O)[O-] + ClC(Cl)(Cl)Cl
viscosity [mPa·s], 101 kPa
Details	x1 = 0.1	x1 = 0.2	x1 = 0.3	x1 = 0.4	x1 = 0.5	x1 = 0.6	x1 = 0.7	x1 = 0.8	x1 = 0.9
303.15 K	0.7767	0.7448	0.7173	0.6971	0.6667	0.6402	0.6152	0.5924	0.5824
308.15 K	0.7408	0.6988	0.6673	0.6509	0.6305	0.6024	0.5769	0.5634	0.5522
318.15 K	0.6485	0.6213	0.597	0.5764	0.5533	0.5327	0.514	0.4996	0.4945

CCn1ccnc1 + O
viscosity [mPa·s], 100 kPa
Details	298.15 K	308.15 K	318.15 K
x1 = 0.05	1.48	1.16	0.94
x1 = 0.1007	2.04	1.56	1.23
x1 = 0.1995	2.99	2.21	1.7
x1 = 0.2988	3.68	2.67	2.03
x1 = 0.3937	4.05	2.92	2.19
x1 = 0.4933	4.05	2.93	2.21
x1 = 0.6011	3.84	2.81	2.14
x1 = 0.695	3.18	2.41	1.89
x1 = 0.7956	2.65	2.07	1.67
x1 = 0.89	2.27	1.82	1.5
x1 = 0.9542	2.05	1.67	1.39

CCCCN + CCC(C)=O
303.15 K, 101.33 kPa
Details	viscosity [mPa·s]
x1 = 0.0943	0.482
x1 = 0.181	0.593
x1 = 0.2823	0.732
x1 = 0.4616	0.924
x1 = 0.5768	0.967
x1 = 0.674	0.914
x1 = 0.7814	0.819
x1 = 0.891	0.671

Cc1ccncc1 + CC(C)(C)O
298.15 K, 101.33 kPa
Details	viscosity [mPa·s]
x2 = 0.0724	0.8901
x2 = 0.2166	0.9887
x2 = 0.2902	1.056
x2 = 0.3416	1.122
x2 = 0.507	1.386
x2 = 0.606	1.641
x2 = 0.6484	1.777
x2 = 0.7197	2.085
x2 = 0.8	2.537
x2 = 0.8603	2.959

CCCCN + CC(C)(C)O
viscosity [mPa·s], 101 kPa
Details	x2 = 0.1	x2 = 0.2004	x2 = 0.2999	x2 = 0.4	x2 = 0.4996	x2 = 0.6	x2 = 0.7	x2 = 0.8	x2 = 0.9004	x2 = 0.95
303.15 K	0.5062	0.5833	0.681	0.804	0.9662	1.177	1.466	1.866	2.458	2.869
308.15 K	0.4732	0.541	0.6257	0.733	0.8694	1.046	1.279	1.591	2.021	2.3
313.15 K	0.4425	0.5022	0.5783	0.6716	0.7865	0.9346	1.119	1.363	1.68	1.874
318.15 K	0.4156	0.4687	0.5345	0.6159	0.7149	0.8377	0.9897	1.183	1.417	1.553
323.15 K	0.3905	0.4378	0.4957	0.5666	0.6519	0.7551	0.8801	1.031	1.21	1.309

CCCCN + ClC(Cl)(Cl)Cl
viscosity [mPa·s], 101 kPa
Details	293.15 K	298.15 K	303.15 K	308.15 K
x1 = 0.1017	0.924	0.86	0.806	0.76
x1 = 0.1975	0.879	0.818	0.766	0.723
x1 = 0.2974	0.832	0.774	0.726	0.684
x1 = 0.3676	0.799	0.743	0.697	0.657
x1 = 0.4895	0.742	0.69	0.647	0.61
x1 = 0.5536	0.712	0.661	0.621	0.585
x1 = 0.6318	0.675	0.627	0.589	0.555
x1 = 0.6708	0.657	0.61	0.573	0.54
x1 = 0.7779	0.606	0.563	0.53	0.499
x1 = 0.8299	0.582	0.54	0.508	0.479
x1 = 0.912	0.543	0.504	0.475	0.447

CC[N+](=O)[O-] + Cc1ccc(C)cc1
293.15 K, 101.33 kPa
Details	viscosity [mPa·s]
x1 = 0.0968	0.633
x1 = 0.1917	0.629
x1 = 0.3	0.627
x1 = 0.4039	0.626
x1 = 0.4933	0.626
x1 = 0.6083	0.629
x1 = 0.6994	0.633
x1 = 0.7938	0.644
x1 = 0.9011	0.66

CCCC(=O)OCC(COC(=O)CCC)OC(=O)CCC + CCCCO
viscosity [mPa·s], 101.33 kPa
Details	x1 = 0.1	x1 = 0.2	x1 = 0.3	x1 = 0.4	x1 = 0.5	x1 = 0.6	x1 = 0.7	x1 = 0.8	x1 = 0.9
298 K	2.61	3	3.46	3.99	4.58	5.23	5.96	6.73	7.66
303 K	2.31	2.64	3.03	3.48	3.97	4.54	5.14	5.77	6.54
308 K	2.04	2.33	2.68	3.06	3.45	3.95	4.45	5.01	5.64
313 K	1.83	2.08	2.38	2.7	3.06	3.48	3.9	4.37	4.89

[I-].[K+] + [2H]O[2H]
viscosity [mPa·s], 101 kPa
Details	x1 = 0.011	x1 = 0.021	x1 = 0.036	x1 = 0.053	x1 = 0.076	x1 = 0.121
298.15 K	1.036	0.97	0.942	0.936	0.972	1.098
308.15 K	0.829	0.794	0.776	0.783	0.823	0.942
318.15 K	0.692	0.667	0.662	0.68	0.715	0.827

O=C(O)C(Cl)(Cl)Cl + CC(=O)c1ccccc1
298.15 K, 101 kPa
Details	viscosity [mPa·s]
x1 = 0.0896	2.112
x1 = 0.14	2.402
x1 = 0.2121	2.931
x1 = 0.2939	3.735
x1 = 0.409	5.54
x1 = 0.4876	7.349
x1 = 0.5794	9.33
x1 = 0.6815	11.15
